{
  "source": "paper PMC7734625",
  "about": "“Stabilization Strategies for Linear Minigastrin Analogues: Further Improvements via the Inclusion of Proline into the Peptide Sequence” (Journal of Medicinal Chemistry, 2020)",
  "experiment": "biodistribution in A431-CCK2R/A431-mock xenografted BALB/c nude mice",
  "format": "in vivo",
  "details": "female, athymic BALB/c nude, mouse, iv, total radioactivity; for tissue to tissue ratio at 4 h / tissue uptake at 4 h: 4 h p.i.; for tissue uptake at 12 h / tissue to tissue ratio at 12 h: 12 h p.i.",
  "key": {"[1]": {"details": "A431-CCK2R xenograft tumor, 20 pmol, 20 pmol, read-out: tumor uptake in A431-CCK2R xenografts"}, "[2]": {"details": "A431-mock xenograft tumor, 20 pmol, 20 pmol, read-out: uptake in A431-mock xenografts"}, "[3]": {"details": "blood, 20 pmol, 20 pmol, read-out: uptake in blood"}, "[4]": {"details": "heart, 20 pmol, 20 pmol, read-out: uptake in heart"}, "[5]": {"details": "intestine, 20 pmol, 20 pmol, read-out: uptake in intestine"}, "[6]": {"details": "kidney, 20 pmol, 20 pmol, read-out: uptake in kidney"}, "[7]": {"details": "liver, 20 pmol, 20 pmol, read-out: uptake in liver"}, "[8]": {"details": "lung, 20 pmol, 20 pmol, read-out: uptake in lung"}, "[9]": {"details": "muscle, 20 pmol, 20 pmol, read-out: uptake in muscle"}, "[10]": {"details": "pancreas, 20 pmol, 20 pmol, read-out: uptake in pancreas"}, "[11]": {"details": "spleen, 20 pmol, 20 pmol, read-out: uptake in spleen"}, "[12]": {"details": "stomach, 20 pmol, 20 pmol, read-out: uptake in stomach"}},
  "note": "Read-outs that look alike come from different tables or passages of the source. Non-standard residues stand in square brackets, D forms with d. Residues, ends and D or L forms follow the SMILES beside them. *: point of attachment. DOTA = O=C(O)CN1CCN(CC(=O)O)CCN(CC(=O)*)CCN(CC(=O)O)CC1; 1Nal = N[C@@H](Cc1cccc2ccccc12)C(=O)O; NMeNle = CCCC[C@H](NC)C(=O)O",
  "data": [
    {"smiles": "CCCC[C@@H](C(=O)N[C@@H](CC(=O)O)C(=O)N[C@@H](Cc1cccc2ccccc12)C(N)=O)N(C)C(=O)[C@H](Cc1c[nH]c2ccccc12)NC(=O)CNC(=O)[C@H](Cc1ccc(O)cc1)NC(=O)[C@@H]1CCCN1C(=O)[C@@H](CCC(=O)O)NC(=O)CN1CCN(CC(=O)O)CCN(CC(=O)O)CCN(CC(=O)O)CC1", "note": "[[^177Lu]Lu-1, metal not drawn] ({DOTA}-[dE]PYGW[NMeNle]D[1Nal]-NH2)", "values": [
      {"measurement": "tissue to tissue ratio at 4 h", "setting": "A431-CCK2R xenograft tumor / blood, 20 pmol, 20 pmol, read-out: tumor-to-blood ratio", "value": "540 ± 103"},
      {"measurement": "tissue to tissue ratio at 4 h", "setting": "A431-CCK2R xenograft tumor / kidney, 20 pmol, 20 pmol, read-out: tumor-to-kidney ratio", "value": 10},
      {"measurement": "tissue to tissue ratio at 4 h", "setting": "A431-CCK2R xenograft tumor / liver, 20 pmol, 20 pmol, read-out: tumor-to-liver ratio", "value": "83.3 ± 23"},
      {"measurement": "tissue to tissue ratio at 4 h", "setting": "A431-CCK2R xenograft tumor / stomach, 20 pmol, 20 pmol, read-out: tumor-to-stomach ratio", "value": 5},
      {"measurement": "tissue uptake at 4 h", "setting": "[1]", "value": "34.7 ± 9.4", "unit": "%ID/g"},
      {"measurement": "tissue uptake at 12 h", "setting": "[1]", "value": "23.4 ± 8.64", "unit": "%ID/g"},
      {"measurement": "tissue uptake at 4 h", "setting": "A431-CCK2R xenograft tumor, 150 pmol, 150 pmol, read-out: tumor uptake in A431-CCK2R xenografts", "value": "16.7 ± 1.48", "unit": "%ID/g"},
      {"measurement": "tissue uptake at 4 h", "setting": "[2]", "value": "0.32 ± 0.14", "unit": "%ID/g"},
      {"measurement": "tissue uptake at 12 h", "setting": "[2]", "value": "0.11 ± 0.02", "unit": "%ID/g"},
      {"measurement": "tissue uptake at 4 h", "setting": "[3]", "value": "0.07 ± 0.02", "unit": "%ID/g"},
      {"measurement": "tissue uptake at 12 h", "setting": "[3]", "value": 0.01, "unit": "%ID/g"},
      {"measurement": "tissue uptake at 4 h", "setting": "[4]", "value": "0.09 ± 0.01", "unit": "%ID/g"},
      {"measurement": "tissue uptake at 12 h", "setting": "[4]", "value": "0.05 ± 0.01", "unit": "%ID/g"},
      {"measurement": "tissue uptake at 4 h", "setting": "[5]", "value": "1.14 ± 0.51", "unit": "%ID/g"},
      {"measurement": "tissue uptake at 12 h", "setting": "[5]", "value": "0.24 ± 0.02", "unit": "%ID/g"},
      {"measurement": "tissue uptake at 4 h", "setting": "intestine, 150 pmol, 150 pmol, read-out: uptake in intestine", "value": "0.61 ± 0.13", "unit": "%ID/g"},
      {"measurement": "tissue uptake at 4 h", "setting": "[6]", "value": "3.97 ± 1.31", "unit": "%ID/g"},
      {"measurement": "tissue uptake at 12 h", "setting": "[6]", "value": "3.12 ± 1.05", "unit": "%ID/g"},
      {"measurement": "tissue uptake at 4 h", "setting": "kidney, 150 pmol, 150 pmol, read-out: uptake in kidney", "value": "4.04 ± 0.82", "unit": "%ID/g"},
      {"measurement": "tissue uptake at 4 h", "setting": "[7]", "value": "0.42 ± 0.06", "unit": "%ID/g"},
      {"measurement": "tissue uptake at 12 h", "setting": "[7]", "value": "0.32 ± 0.09", "unit": "%ID/g"},
      {"measurement": "tissue uptake at 4 h", "setting": "liver, 150 pmol, 150 pmol, read-out: uptake in liver", "value": "0.49 ± 0.12", "unit": "%ID/g"},
      {"measurement": "tissue uptake at 4 h", "setting": "[8]", "value": "0.14 ± 0.05", "unit": "%ID/g"},
      {"measurement": "tissue uptake at 12 h", "setting": "[8]", "value": "0.11 ± 0.07", "unit": "%ID/g"},
      {"measurement": "tissue uptake at 4 h", "setting": "lung, 150 pmol, 150 pmol, read-out: uptake in lung", "value": "0.15 ± 0.07", "unit": "%ID/g"},
      {"measurement": "tissue uptake at 4 h", "setting": "[9]", "value": "0.06 ± 0.05", "unit": "%ID/g"},
      {"measurement": "tissue uptake at 12 h", "setting": "[9]", "value": "0.02 ± 0.01", "unit": "%ID/g"},
      {"measurement": "tissue uptake at 4 h", "setting": "muscle, 150 pmol, 150 pmol, read-out: uptake in muscle", "value": "0.05 ± 0.03", "unit": "%ID/g"},
      {"measurement": "tissue uptake at 4 h", "setting": "[10]", "value": "2.09 ± 0.84", "unit": "%ID/g"},
      {"measurement": "tissue uptake at 12 h", "setting": "[10]", "value": "0.76 ± 0.13", "unit": "%ID/g"},
      {"measurement": "tissue uptake at 4 h", "setting": "pancreas, 150 pmol, 150 pmol, read-out: uptake in pancreas", "value": "0.35 ± 0.06", "unit": "%ID/g"},
      {"measurement": "tissue uptake at 4 h", "setting": "[11]", "value": "0.18 ± 0.04", "unit": "%ID/g"},
      {"measurement": "tissue uptake at 12 h", "setting": "[11]", "value": "0.13 ± 0.03", "unit": "%ID/g"},
      {"measurement": "tissue uptake at 4 h", "setting": "[12]", "value": "7.37 ± 2.26", "unit": "%ID/g"},
      {"measurement": "tissue uptake at 12 h", "setting": "[12]", "value": "4.18 ± 0.72", "unit": "%ID/g"},
      {"measurement": "tissue uptake at 4 h", "setting": "stomach, 150 pmol, 150 pmol, read-out: uptake in stomach", "value": "1.26 ± 0.5", "unit": "%ID/g"},
      {"measurement": "tissue to tissue ratio at 12 h", "setting": "tumor/blood, 20 pmol, 20 pmol, read-out: tumor-to-blood ratio", "value": "2440 ± 1780"},
      {"measurement": "tissue to tissue ratio at 4 h", "setting": "tumor/blood, 150 pmol, 150 pmol, read-out: tumor-to-blood ratio", "value": "294 ± 137"},
      {"measurement": "tissue to tissue ratio at 12 h", "setting": "tumor/kidney, 20 pmol, 20 pmol, read-out: tumor-to-kidney ratio", "value": "8.14 ± 4.06"},
      {"measurement": "tissue to tissue ratio at 4 h", "setting": "tumor/kidney, 150 pmol, 150 pmol, read-out: tumor-to-kidney ratio", "value": "4.25 ± 0.88"},
      {"measurement": "tissue to tissue ratio at 12 h", "setting": "tumor/liver, 20 pmol, 20 pmol, read-out: tumor-to-liver ratio", "value": "76.8 ± 34.4"},
      {"measurement": "tissue to tissue ratio at 4 h", "setting": "tumor/liver, 150 pmol, 150 pmol, read-out: tumor-to-liver ratio", "value": "35.9 ± 9.9"},
      {"measurement": "tissue to tissue ratio at 12 h", "setting": "tumor/stomach, 20 pmol, 20 pmol, read-out: tumor-to-stomach ratio", "value": "5.54 ± 1.44"},
      {"measurement": "tissue to tissue ratio at 4 h", "setting": "tumor/stomach, 150 pmol, 150 pmol, read-out: tumor-to-stomach ratio", "value": "14.9 ± 5.6"}
    ]}
  ]
}
